In article PMC4090677 (Frontiers in Immunology, 2014):

Assay: physchem
Conditions: pH 7.6, aqueous with cosolvent or surfactant or cyclodextrin, kinetic from dmso stock

COc1ccccc1N1CCN(C(=O)c2ccc3c(c2)NC(=O)C(CSCc2ccccc2C)N3)CC1 (stereo not shown) [Compound 4]
solubility: ≤ 50 µM
